# According to the supplement of paper PMC10307832:
# Legend:
# Experiment in all cases: relative viability (nuclei count vs DMSO), 5 days (fraction); higher = more cells survive
# [1] = compound: CCN(CCO)CCCC(C)Nc1ccnc2cc(Cl)ccc12 [Hydroxychloroquine] + Cc1nc(NC(=O)N2CCC[C@H]2C(N)=O)sc1-c1ccnc(C(C)(C)C(F)(F)F)c1 [Alpelisib] (partner 2 µM)
# Method in brief: (§1)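 After 5 days of treatment, lung cancer cells in 1536-well plates were fixed and stained in a single step (final 0.05% Triton X-100, 1% formaldehyde, 1 ug/ml Hoechst) and their nuclei counted on 4× images. Treatment had been applied by pin tool the day after seeding as one drug alone or as a fixed anchor-drug dose with five library-drug doses (not always all listed) in √10 steps. Relative viability is the nuclei count of treated wells divided by that of vehicle wells, and values are medians of duplicate plates.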
# [2] = compound: CCN(CCO)CCCC(C)Nc1ccnc2cc(Cl)ccc12 [Hydroxychloroquine] + CC(=O)c1c(C)c2cnc(Nc3ccc(N4CCNCC4)cn3)nc2n(C2CCCC2)c1=O [Palbociclib] (partner 0.5 µM)
# Method in brief: as §1
# [3] = compound: CCN(CCO)CCCC(C)Nc1ccnc2cc(Cl)ccc12 [Hydroxychloroquine] + CC(C)C[C@H](NC(=O)[C@H](Cc1ccccc1)NC(=O)c1cnccn1)B(O)O [Bortezomib] (partner 0.002 µM)
# Method in brief: as §1
# [4] = compound: CCN(CCO)CCCC(C)Nc1ccnc2cc(Cl)ccc12 [Hydroxychloroquine] + Cc1nc(Nc2ncc(C(=O)Nc3c(C)cccc3Cl)s2)cc(N2CCN(CCO)CC2)n1 [Dasatinib] (partner 0.075 µM)
# Method in brief: as §1
Cell Line,relative viability ([1]; first compound 0.5 µM),relative viability ([1]; first compound 1.581 µM),relative viability ([1]; first compound 5 µM),relative viability ([1]; first compound 15.81 µM),relative viability ([1]; first compound 50 µM),relative viability ([2]; first compound 0.5 µM),relative viability ([2]; first compound 1.581 µM),relative viability ([2]; first compound 5 µM),relative viability ([2]; first compound 15.81 µM),relative viability ([2]; first compound 50 µM),relative viability ([3]; first compound 0.5 µM),relative viability ([3]; first compound 1.581 µM),relative viability ([3]; first compound 5 µM),relative viability ([3]; first compound 15.81 µM),relative viability ([3]; first compound 50 µM),relative viability ([4]; first compound 0.5 µM),relative viability ([4]; first compound 1.581 µM),relative viability ([4]; first compound 5 µM),relative viability ([4]; first compound 15.81 µM),relative viability ([4]; first compound 50 µM)
NCI-H460,0.609,0.428,0.439,0.421,0.52,0.129,0.148,0.149,0.115,0.227,1.08,1.05,1.1,1.39,1.36,0.576,0.481,0.457,0.527,0.599
NCI-H1793,0.832,0.738,0.635,0.736,0.749,0.331,0.311,0.372,0.325,0.312,,,,,,0.464,0.36,0.423,0.413,0.476
NCI-H23,0.863,0.725,0.701,0.609,0.57,0.499,0.487,0.548,0.464,0.477,1.15,1.14,0.884,1.02,0.881,0.87,0.683,0.879,0.807,0.795
HARA,0.763,0.856,0.863,0.805,0.841,0.239,0.292,0.26,0.302,0.23,1.1,1.19,1.02,1.13,1.06,0.287,0.262,0.253,0.29,0.299
NCI-H1792,0.677,0.698,0.65,0.392,0.664,0.696,0.683,0.584,0.657,0.68,0.979,0.955,1.02,1.05,1.17,0.922,0.936,0.759,0.825,0.711
NCI-H1703,0.401,0.21,0.326,0.343,0.367,,,,,,0.322,0.273,0.284,0.291,0.316,,,,,
NCI-H2342,,,,,,0.565,0.514,0.507,0.487,0.514,,,,,,0.338,0.312,0.32,0.292,0.34
CAL-12T,1.24,1.16,1.32,1.42,1.69,0.56,0.383,0.462,0.478,0.595,1.11,,0.922,0.795,0.926,0.573,0.399,0.352,0.351,0.404
NCI-H838,1.04,0.946,0.983,1.04,1.08,0.237,0.197,0.242,0.194,0.22,0.9,0.819,0.663,0.79,0.805,0.256,0.258,0.296,0.242,0.237
NCI-H2085,0.91,0.998,0.973,0.914,0.917,0.473,0.422,0.48,0.484,0.455,0.987,0.94,1.24,1.07,1.1,0.274,0.267,0.223,0.274,0.232
NCI-H1395,0.979,0.899,0.975,1.09,0.954,0.652,0.556,0.626,0.608,0.563,,,,,,0.424,0.402,0.401,0.391,0.405
NCI-H1648,,,,,,0.277,0.264,0.266,0.211,0.288,,,,,,,,,,
NCI-H520,1.04,0.776,0.901,0.999,0.89,0.232,0.205,0.231,0.199,0.239,0.639,0.606,0.662,0.658,0.511,0.196,0.223,0.213,0.184,0.196
A549,0.749,0.577,0.761,0.708,0.623,,,,,,,,,,,,,,,
IA-LM,0.878,0.377,0.811,0.607,0.887,,,,,,0.695,0.83,0.909,0.758,1,,,,,
EKVX,0.964,0.867,0.844,0.846,0.912,0.354,0.374,0.377,0.74,0.412,1.26,0.925,1.04,0.916,1.09,0.512,0.502,0.495,0.535,0.337
ChaGo-K-1,,,,,,0.967,0.942,0.912,0.975,0.989,1.04,0.895,0.687,1.06,1.02,0.626,0.593,0.537,0.593,0.626

Cell Line,relative viability ([1]; first compound 0.5 µM),relative viability ([1]; first compound 1.581 µM),relative viability ([1]; first compound 5 µM),relative viability ([1]; first compound 15.81 µM),relative viability ([1]; first compound 50 µM),relative viability ([2]; first compound 0.5 µM),relative viability ([2]; first compound 1.581 µM),relative viability ([2]; first compound 5 µM),relative viability ([2]; first compound 15.81 µM),relative viability ([2]; first compound 50 µM),relative viability ([3]; first compound 0.5 µM),relative viability ([3]; first compound 1.581 µM),relative viability ([3]; first compound 5 µM),relative viability ([3]; first compound 15.81 µM),relative viability ([3]; first compound 50 µM),relative viability ([4]; first compound 0.5 µM),relative viability ([4]; first compound 1.581 µM),relative viability ([4]; first compound 5 µM),relative viability ([4]; first compound 15.81 µM),relative viability ([4]; first compound 50 µM)
NCI-H1755,0.925,0.877,0.908,0.956,0.911,0.459,0.398,0.445,0.443,0.475,0.955,0.868,0.918,0.927,0.953,0.498,0.381,0.422,0.392,0.394
NCI-H2228,0.705,0.546,0.682,0.549,0.735,0.322,0.871,0.857,0.706,0.873,1,1.18,1,1.05,1.29,0.53,0.456,0.516,0.524,0.506
NCI-H2087,1.03,1.06,0.87,1.08,1.02,0.189,0.227,0.231,0.189,0.213,0.829,0.959,0.835,0.869,1.1,0.96,0.77,0.794,0.954,0.969
LU99A,0.481,0.364,0.534,0.498,0.619,0.356,0.383,0.377,0.444,0.473,1.11,1.02,1.11,1.08,1.26,0.47,0.502,0.714,0.613,0.612
NCI-H1355,0.81,0.744,0.837,0.833,0.86,0.41,0.365,0.392,0.387,0.379,1.24,1.19,1.09,1.12,1.25,0.74,0.59,0.693,0.705,0.875
NCI-H596,0.461,0.463,0.546,0.606,0.492,,,,,,1.04,0.857,0.847,0.999,1.19,0.56,0.587,0.59,0.655,0.591
LK-2,1.02,,1.26,1.27,1.24,0.884,0.832,0.762,0.809,0.697,,,,,,0.258,0.261,,0.294,0.357
NCI-H1944,0.797,0.778,0.858,0.794,0.848,0.301,0.314,0.319,0.29,0.346,,,,,,0.206,0.184,0.23,0.202,0.194
NCI-H1650,,,,,,0.291,0.341,0.317,0.323,0.355,0.203,0.221,0.218,0.227,0.219,0.425,0.357,0.241,0.296,0.303
SK-MES-1,0.697,0.765,1.01,0.952,0.929,0.365,0.319,0.332,0.368,0.343,,,,,,0.342,0.306,0.388,0.37,0.339
NCI-H2170,0.832,0.797,0.844,0.801,0.835,0.379,0.401,0.415,0.4,0.421,,,,,,0.645,0.601,0.558,0.62,0.673
NCI-H358,0.832,0.698,0.775,0.91,0.8,0.13,0.126,0.137,0.122,0.137,,,,,,0.177,0.131,0.139,0.144,0.155
NCI-H1563,0.908,0.877,1,0.888,0.871,,,,,,0.891,0.784,0.923,0.779,0.759,0.509,0.501,0.449,0.475,0.421
EBC-1,1.01,0.572,0.784,0.688,0.599,,,,,,0.471,0.51,0.505,0.519,0.459,,,,,
Calu-6,1.01,0.881,0.896,0.939,0.924,,,,,,1,1.08,0.954,1,0.922,,,,,
HCC-44,0.815,0.838,0.86,0.922,0.902,0.952,1.03,1.01,1.04,1.03,0.875,0.865,0.883,0.914,0.955,,,,,
